Earlier results in patent publication US20170252311A1, “SPHINGOSINE KINASE INHIBITORS AND CERAMIDE FOR MAINTENANCE THERAPY OF GLIOBLASTOMA” (SignPath Pharma Inc., priority 2016, published 2017).
Read-outs that look alike come from different tables or passages of the source.

Key:
tumor = conditions: single agent
[1] = system: JC mouse mammary adenocarcinoma cell line
[2] = system: JC mammary adenocarcinoma cells; conditions: syngeneic BALB/c mouse solid tumor model of JC cells
[3] = system: prostate cancer cell lines and TRAMP-C2 xenografts
[4] = system: xenograft prostate cancer models
[5] = target: T1, Acid Cer (Acid ceramidase) (Homo sapiens, UniProt Q13510)
T1 sequence (Q13510 22-395): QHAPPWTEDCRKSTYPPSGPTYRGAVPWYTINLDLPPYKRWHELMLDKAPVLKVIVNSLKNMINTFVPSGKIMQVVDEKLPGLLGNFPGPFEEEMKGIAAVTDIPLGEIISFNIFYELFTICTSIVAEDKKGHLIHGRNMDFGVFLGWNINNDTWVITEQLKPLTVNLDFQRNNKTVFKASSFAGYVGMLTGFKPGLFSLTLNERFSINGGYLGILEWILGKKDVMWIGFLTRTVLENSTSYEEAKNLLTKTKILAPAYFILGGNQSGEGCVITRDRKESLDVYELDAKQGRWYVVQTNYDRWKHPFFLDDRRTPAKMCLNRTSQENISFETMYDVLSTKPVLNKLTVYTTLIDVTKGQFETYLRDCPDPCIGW

protein kinase C = conditions: selectivity
[6] = system: LN229 intracranial xenografts
protein kinase B = conditions: selectivity
SK2 = SK2 (Homo sapiens, UniProt Q9NRA0); conditions: selectivity
[7] = system: human leukemic cell lines and acute myelogenous leukemia xenografts; conditions: human leukemic cell lines and AML xenografts
[8] = system: other serine/threonine kinases; conditions: selectivity
[9] = system: LN229 and U373 glioblastoma cell lines, non-established human GBM6 cells, and GBM xenografts
[10] = system: Cer Syn (ceramide synthase)
SK (sphingosine kinase) = conditions: arrow down = decrease, arrow up = increase (not defined in patent)
[11] = target: GCS (glucosylceramide synthase) (Homo sapiens, UniProt Q16739)
[12] = system: SPT (serine palmitoyltransferase)
[13] = system: GTP cyclohydrolase (GTPCH); conditions: C6 glioma cell line
[14] = system: U87MG, U1242MG, M059K cell lines; conditions: in all three lines

Chain of GCS (glucosylceramide synthase) (Q16739 whole entry, species assumed): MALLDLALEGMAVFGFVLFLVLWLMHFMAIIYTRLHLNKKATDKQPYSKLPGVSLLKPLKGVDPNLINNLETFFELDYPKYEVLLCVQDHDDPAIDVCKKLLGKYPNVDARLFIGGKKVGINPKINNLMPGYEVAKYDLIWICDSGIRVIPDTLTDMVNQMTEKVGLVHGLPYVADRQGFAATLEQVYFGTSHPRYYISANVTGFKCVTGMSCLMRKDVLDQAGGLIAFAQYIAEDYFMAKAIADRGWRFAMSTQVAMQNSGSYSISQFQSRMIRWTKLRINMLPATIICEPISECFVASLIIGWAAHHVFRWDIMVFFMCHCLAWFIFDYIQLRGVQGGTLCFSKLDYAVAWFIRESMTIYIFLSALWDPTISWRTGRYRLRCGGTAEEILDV
Chain of SK2 (Q9NRA0 whole entry): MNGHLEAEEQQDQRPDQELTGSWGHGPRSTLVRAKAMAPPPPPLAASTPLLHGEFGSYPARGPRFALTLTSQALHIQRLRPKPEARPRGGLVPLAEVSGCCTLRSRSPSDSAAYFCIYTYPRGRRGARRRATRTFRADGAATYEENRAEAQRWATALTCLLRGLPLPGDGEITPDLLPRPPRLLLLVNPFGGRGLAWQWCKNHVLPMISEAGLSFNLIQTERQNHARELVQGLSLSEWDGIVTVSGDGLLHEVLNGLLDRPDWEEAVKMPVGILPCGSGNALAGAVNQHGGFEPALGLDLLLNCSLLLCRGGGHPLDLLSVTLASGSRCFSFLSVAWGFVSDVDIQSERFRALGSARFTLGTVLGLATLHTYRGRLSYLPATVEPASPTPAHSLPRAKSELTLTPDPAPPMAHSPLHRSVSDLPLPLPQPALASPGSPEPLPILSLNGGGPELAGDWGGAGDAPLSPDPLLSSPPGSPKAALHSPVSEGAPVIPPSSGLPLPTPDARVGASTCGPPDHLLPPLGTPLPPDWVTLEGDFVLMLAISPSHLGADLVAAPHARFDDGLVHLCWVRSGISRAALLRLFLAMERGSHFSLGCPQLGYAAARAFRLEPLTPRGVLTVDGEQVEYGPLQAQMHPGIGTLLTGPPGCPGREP

In the case of `CCCCCCCCCCCCC/C=C/[C@@H](O)[C@H](CO)[N+](C)(C)C` [N,N,N-trimethylsphingosine], the anti-tumor activity alone (tumor) is listed as “did not appear to have significant anti-tumor activity alone”.

For `O=C1C(=Cc2ccc(O)c(O)c2)Oc2ccccc21` [SKI-V, 2-(3,4-dihydroxy-benzylidene)-benzofuran-3-one], the anti-tumor activity [1] is listed as “anti-tumor activity” and the anti-tumor activity [2] is listed as “anti-tumor activity”.

For `O=C(NCc1ccncc1)C12CC3CC(C1)CC(c1ccc(Cl)cc1)(C3)C2` [ABC294640, 3-(4-chlorophenyl)-adamantane-1-carboxylic acid (pyridin-4-ylmethyl) amide], the cell viability [3] is listed as “reduced cell viability”, the expression of c-myc [3] is listed as “decreased expression of c-myc” and the cancer growth [4] is listed as “significantly blocked cancer growth”.

In the case of `CC/C(=C(\c1ccccc1)c1ccc(OCCN(C)C)cc1)c1ccccc1` [tamoxifen], the “Sphingolipid Enzymes Affected: Acid Cer” value [5] is given as “decreases acid ceramidase”.

For `CCCCCCCCCCCCCCC[C@H](O)[C@@H](N)CO` [safingol, D,L-threodihydrosphingosine], the anti-tumor activity alone (tumor) is given as “did not appear to have significant anti-tumor activity alone”.

For `CCCCCc1ccc(/C=C/[C@H](O)[C@@H](CO)NC)cc1` [SK1-I, (2R,3S,4E)-N-methyl-5-(4′-pentylphenyl)-2-aminopent-4-ene-1,3-diol], the “inhibition of protein kinase C” value (protein kinase C) is listed as “does not inhibit”, the angiogenesis [6] is listed as “Reduced” and the apoptosis [6] is listed as “Caused apoptosis”. For the same molecule, the tumor growth rate [6] was “Reduced tumor growth rate”, the cell growth (GBM6 cell lines) was “Reduced cell growth” and the “epidermal growth factor-stimulated phosphorylation of Akt” value (GBM6 cell lines) was “Reduced”. The “inhibition of protein kinase B” value (protein kinase B) was “does not inhibit”, the “inhibition of SK2” value (SK2) was “does not inhibit” and the apoptosis [7] was “induced apoptosis”. The tumor growth [7] was “blocked tumor growth”, the “inhibition of other serine/threonine kinases” value [8] was “does not inhibit” and the apoptosis [9] was “prompts apoptosis”. The “protein kinase B (Akt) signaling” value [9] was “inhibits protein kinase B (Akt) signaling”, the tumor development [9] was “suppresses tumor development” and the cell growth (LN229, U373 cell lines) was “Inhibited cell growth”. The migration (LN229, U373 cell lines) was “Inhibited”.

In the case of `O=C(NN=Cc1c(O)ccc2ccccc12)c1cc(-c2ccc3ccccc3c2)n[nH]1` [SKI-I, 5-naphthalen-2-yl-2H-pyrazole-3-carboxylic acid (2-hydroxy-naphthalen-1-ylmethylene)-hydrazide], the anti-tumor activity [1] is listed as “anti-tumor activity” and the anti-tumor activity [2] is listed as “anti-tumor activity”.

For `Cc1ccc(NC(=O)c2ccc(CN3CCN(C)CC3)cc2)cc1Nc1nccc(-c2cccnc2)n1` [Imatinib], the “Sphingolipid Enzymes Affected: Cer Syn” value [10] is listed as “↑Cer Syn” and the “Sphingolipid Enzymes Affected: SK” value (SK (sphingosine kinase)) is listed as “↓SK”.

For `CCN(CC)CCCC(C)Nc1ccnc2cc(Cl)ccc12` (stereo not drawn) [Chloroquine], the “Sphingolipid Enzymes Affected: SM Syn” value (SM Syn) is given as “↓SM Syn”, the “Sphingolipid Enzymes Affected: SK” value (SK (sphingosine kinase)) is given as “↓SK” and the “Sphingolipid Enzymes Affected: Acid Cer” value [5] is given as “↓Acid Cer”. The “Sphingolipid Enzymes Affected: GCS” value [11] was “↑GCS” and the “Sphingolipid Enzymes Affected: SMase” value (SMase (Sphingomyelinase)) was “↑↓Smase”.

In the case of `COc1cc(/C=C/C(=O)CC(=O)/C=C/c2ccc(O)c(OC)c2)ccc1O` [Curcumin], the “Sphingolipid Enzymes Affected: Cer Syn” value [10] is listed as “↑Cer Syn”, the “Sphingolipid Enzymes Affected: SK” value (SK (sphingosine kinase)) is listed as “↓SK” and the “Sphingolipid Enzymes Affected: SPT” value [12] is listed as “↑SPT”.

For `Cc1cn(-c2cc(NC(=O)c3ccc(C)c(Nc4nccc(-c5cccnc5)n4)c3)cc(C(F)(F)F)c2)cn1` [Nilotinib], the “Sphingolipid Enzymes Affected: Cer Syn” value [10] is listed as “↑Cer Syn” and the “Sphingolipid Enzymes Affected: SK” value (SK (sphingosine kinase)) is listed as “↓SK”.

For `CCCCCCCCCCCCC/C=C/[C@@H](O)[C@H](CO)N(C)C` [N,N-dimethylshingosine], the “tumor necrosis factor-α induced GTP cyclohydrolase (GTPCH) activity” value [13] is given as “Suppressed tumor necrosis”.

For `Oc1ccc(Nc2nc(-c3ccc(Cl)cc3)cs2)cc1` [SKI-II, 4-[4-(4-chloro-phenyl)-thiazol-2-ylamino]-phenol], the cellular proliferation ([14]; listed as 2-(p-Hdroxyanilino)-4-(p-chlorophenyl)thiazole) is listed as “Decreased cellular proliferation”, the cellular proliferation ([14]; listed as 2-(p-Hydroxyanilino)-4-(p-chlorophenyl)thiazole) is listed as “significantly decreased the rate of proliferation” and the cancer cell death (U251MG, D54MG cell lines; TMZ resistant GBM cell lines U251 and D54MG) is listed as “promote cancer cell death”. For the same molecule, the “activity in cell lines made resistant to TMZ” value (U251MG, D54MG cell lines; U251MG, D54MG) was “Active in cell lines mde resistant”, the anti-tumor activity [1] was “anti-tumor activity” and the “expression of urokinase plasminogen activator” value (U118MG cell line) was “Blocked”. For the same molecule, the invasiveness (U118MG cell line) was “Decreased invasiveness”, the anti-tumor activity [2] was “especially effective” and the “cell cycle (accumulation of cells at G1)” value (U98G cell line) was “accumulation of cells at G1”. For the same molecule, the proliferation (U98G cell line) was “Decreased proliferation. Caused”.

In the case of `OC(c1cc(C(F)(F)F)nc2c(C(F)(F)F)cccc12)C1CCCCN1` (stereo not drawn) [Mefloquine], the “Sphingolipid Enzymes Affected: SM Syn” value (SM Syn) is given as “↓SM Syn”, the “Sphingolipid Enzymes Affected: SK” value (SK (sphingosine kinase)) is given as “↓SK” and the “Sphingolipid Enzymes Affected: Acid Cer” value [5] is given as “↓Acid Cer”. The “Sphingolipid Enzymes Affected: GCS” value [11] was “↑GCS” and the “Sphingolipid Enzymes Affected: SMase” value (SMase (Sphingomyelinase)) was “↑↓Smase”.

In the case of `Oc1ccc(C=Cc2cc(O)cc(O)c2)cc1` [Resveratrol], the “Sphingolipid Enzymes Affected: Cer Syn” value [10] is listed as “↑Cer Syn”, the “Sphingolipid Enzymes Affected: SK” value (SK (sphingosine kinase)) is listed as “↓SK” and the “Sphingolipid Enzymes Affected: SPT” value [12] is listed as “↑SPT”.
